The results in this text go back to US10174053B2, “2 substituted cephem compounds” (Glaxo Group Limited, priority 2012, dated 2019).

Structures are written as SMILES. In brackets after ≈: the same amount, converted by molar mass.

Test in all cases: In vitro antimicrobial activity, MIC by broth microdilution (CLSI)
Common to all, as to type: cell-based
For orientation: Broth dilution looks for growth in wells or tubes with falling amounts of substance.

One assay concerns E. Coli JMI1890. The note with it: Escherichia coli; PER-1, TEM-1, ESBL producing strain; 5×10^5 cfu/mL; cation-adjusted Iso-Sensitest broth containing human Apo-transferrin; read-out: Minimum Inhibitory Concentration (MIC) E. Coli JMI:1890. The method in brief: (§1)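 MIC (μg/mL) by CLSI broth microdilution, inoculum 5×10^5 cfu/mL, in cation-adjusted Iso-Sensitest broth containing human apo-transferrin.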

The next assay has as its system A. baumannii JMI7. To be noted: Acinetobacter baumannii, JMI7; PER-1, OXA-23, 51, ESBL and OXA-type carbapenemase producing strain; 5×10^5 cfu/mL; cation-adjusted Iso-Sensitest broth containing human Apo-transferrin; read-out: Minimum Inhibitory Concentration (MIC) A. baumannii JMI:7. The method in brief: as §1
Another assay has as its system K. pneumoniae SR01358. To be noted: Klebsiella pneumoniae, SR01358; KPC-2, ESBL and KPC-type carbapenemase producing strain; 5×10^5 cfu/mL; cation-adjusted Iso-Sensitest broth containing human Apo-transferrin; read-out: Minimum Inhibitory Concentration (MIC) K. pneumoniae SR01358. Put shortly:
as §1

The next assay deals with A. baumannii JMI2346. To be noted: Acinetobacter baumannii, JMI2346; OXA-51, TEM, ESBL and OXA-type carbapenemase producing strain; 5×10^5 cfu/mL; cation-adjusted Iso-Sensitest broth containing human Apo-transferrin; read-out: Minimum Inhibitory Concentration (MIC) A. baumannii JMI:2346. The method in brief: as §1

Regarding `C[C@@H]1S[C@@H]2[C@H](NC(=O)/C(=N\OC(C)(C)C(=O)O)c3csc(N)n3)C(=O)N2C(C(=O)[O-])=C1C[N+]12CCC(Cn3cnc4cc(O)c(O)cc4c3=O)(CC1)C2` [Compound I-164, (4S,6R,7R)-7-((Z)-2-(2-aminothiazol-4-yl)-2-(((2-carboxypropan-2-yl)oxy)imino)acetamido)-3-((4-((6,7-dihydroxy-4-oxoquinazolin-3(4H)-yl)methyl)-1-azabicyclo[2.2.1]heptan-1-ium-1-yl)methyl)-4-methyl-8-oxo-5-thia-1-azabicyclo[4.2.0]oct-2-ene-2-carboxylate], the MIC is at most 0.031 µg/mL in the assay on E. Coli JMI1890, 0.5 µg/mL (≈ 0.65 µM) in the assay with A. baumannii JMI7, at most 0.031 µg/mL in the assay with K. pneumoniae SR01358 and 2 µg/mL (≈ 2.6 µM) in the assay on A. baumannii JMI2346.

`C[C@@H]1S[C@@H]2[C@H](NC(=O)/C(=N\OC(C)(C)C(=O)O)c3csc(N)n3)C(=O)N2C(C(=O)[O-])=C1C[N+]12CCC(Cn3cnc4cc(O)c(O)c(Cl)c4c3=O)(CC1)C2` [Compound I-165, (4S,6R,7R)-7-((Z)-2-(2-aminothiazol-4-yl)-2-(((2-carboxypropan-2-yl)oxy)imino)acetamido)-3-((4-((5-chloro-6,7-dihydroxy-4-oxoquinazolin-3(4H)-yl)methyl)-1-azabicyclo[2.2.1]heptan-1-ium-1-yl)methyl)-4-methyl-8-oxo-5-thia-1-azabicyclo[4.2.0]oct-2-ene-2-carboxylate]: the MIC with E. Coli JMI1890 was at most 0.031 µg/mL; with A. baumannii JMI7 it was 0.5 µg/mL (≈ 0.622 µM); with K. pneumoniae SR01358, at most 0.031 µg/mL; in the assay on A. baumannii JMI2346 it was 1 µg/mL (≈ 1.24 µM).

As to `C[C@@H]1S[C@@H]2[C@H](NC(=O)/C(=N\OC(C)(C)C(=O)[O-])c3csc(N)n3)C(=O)N2C(C(=O)[O-])=C1C[N+]12CCC(CNC(=O)c3c[nH]c4cc(O)c(O)c(Cl)c4c3=O)(CC1)CC2.[Na+]` [Compound I-169, (4S,6R,7R)-7-((Z)-2-(2-aminothiazol-4-yl)-2-(((2-carboxypropan-2-yl)oxy)imino)acetamido)-3-((4-((5-chloro-6,7-dihydroxy-4-oxo-1,4-dihydroquinoline-3-carboxamido)methyl)quinuclidin-1-ium-1-yl)methyl)-4-methyl-8-oxo-5-thia-1-azabicyclo[4.2.0]oct-2-ene-2-carboxylate, Sodium salt], the MIC with E. Coli JMI1890 is 0.063 µg/mL; in the assay on A. baumannii JMI7, 0.25 µg/mL; in the assay with K. pneumoniae SR01358, at most 0.031 µg/mL; in the assay on A. baumannii JMI2346, 0.5 µg/mL.

On to `C[C@@H]1S[C@@H]2[C@H](NC(=O)/C(=N\OC(C)(C)C(=O)[O-])c3csc(N)n3)C(=O)N2C(C(=O)[O-])=C1C[N+]12CCC(CC1)N(C(=O)c1c[nH]c3cc(O)c(O)cc3c1=O)CC2.[Na+]` [Compound I-174, (4S,6R,7R)-7-((Z)-2-(2-aminothiazol-4-yl)-2-(((2-carboxypropan-2-yl)oxy)imino)acetamido)-3-((4-(6,7-dihydroxy-4-oxo-1,4-dihydroquinoline-3-carbonyl)-1,4-diazabicyclo[3.2.2]nonan-1-ium-1-yl)methyl)-4-methyl-8-oxo-5-thia-1-azabicyclo[4.2.0]oct-2-ene-2-carboxylate, Sodium salt], for which the MIC in the assay on E. Coli JMI1890 is 4 µg/mL; with A. baumannii JMI7 it was 0.25 µg/mL; with K. pneumoniae SR01358 it was at most 0.031 µg/mL; in the assay on A. baumannii JMI2346, 1 µg/mL.

For the compound `C[C@@H]1S[C@@H]2[C@H](NC(=O)/C(=N\OC(C)(C)C(=O)[O-])c3csc(N)n3)C(=O)N2C(C(=O)[O-])=C1C[N+]12CCC(CC1)N(C(=O)c1c[nH]c3cc(O)c(O)c(Cl)c3c1=O)CC2.[Na+]` [Compound I-177, (4S,6R,7R)-7-((Z)-2-(2-aminothiazol-4-yl)-2-(((2-carboxypropan-2-yl)oxy)imino)acetamido)-3-((4-(5-chloro-6,7-dihydroxy-4-oxo-1,4-dihydroquinoline-3-carbonyl)-1,4-diazabicyclo[3.2.2]nonan-1-ium-1-yl)methyl)-4-methyl-8-oxo-5-thia-1-azabicyclo [4.2.0]oct-2-ene-2-carboxylate, Sodium salt], the MIC in the assay on E. Coli JMI1890 was 0.063 µg/mL; with A. baumannii JMI7 it was 0.25 µg/mL; with K. pneumoniae SR01358, at most 0.031 µg/mL; in the assay on A. baumannii JMI2346, 0.5 µg/mL.

With `C[C@@H]1S[C@@H]2[C@H](NC(=O)/C(=N\OC(C)(C)C(=O)[O-])c3csc(N)n3)C(=O)N2C(C(=O)[O-])=C1C[N+]12CCC(Cn3[nH]c(=O)c4cc(O)c(O)cc4c3=O)(CC1)C2.[Na+]` [Compound I-180], the MIC was at most 0.031 µg/mL in the assay on E. Coli JMI1890, 0.5 µg/mL in the assay on A. baumannii JMI7, at most 0.031 µg/mL in the assay on K. pneumoniae SR01358 and 1 µg/mL with A. baumannii JMI2346.
